Reference: patent publication US9057727B2, “Screening methods using G-protein coupled receptors and related compositions” (The General Hospital Corporation, priority 2007, dated 2015)
pEC50: −log10 of the molar value. Ends that are not written are not given here. Peptide text beside a SMILES is read from it.

Columns and labels:
MC3T3-E1 cells [1] = assay: cAMP in MC3T3-E1 cells, dose-response; format: cell-based; conditions: Table 3; read-out: dose-response cAMP in MC3T3-E1 (EC50)
Procedure: In the 1-30 scaffold, Gly, Ser, Leu, Asn, Gln, Trp, Glu, and Lys were substituted at position 29; Gly, Ser, Leu, Asn, Asp, Trp, and Lys were substituted at position 30; and Ser, Leu, Asn, Val, Trp, Glu, and Lys were substituted at position 31. […] These peptides were tested for cAMP activity in MC3T3-E1 cells.

MC3T3-E1 cells [2] = assay: cAMP screen of EALK-PTHrP(1-31)/(1-34) variants (% parent); format: cell-based
Description: FIGS. 32A and 32B are graphs showing the effects of amino acid substitutions in the 29-31 region of EALK-PTHrP(1-31) (SEQ ID NO:94) (FIG. 32A) and the 29-33 region of EALK-PTHrP(1-34) (SEQ ID NO:112) (FIG. 32B) on induction of cAMP activity in MC3T3-E1 cells. Substitutions at position 29 for EALK-PTHrP(1-31) were G^29 to S^29 (SEQ ID NO:95-96), L^29 (SEQ ID NO:176), and N^29 to K^29 (SEQ ID NO:97-101). Substitutions at position 30 for EALK-PTHrP(1-31) were G^30 to D^30 (SEQ ID NO:102-106), W^30 (SEQ ID NO:177), and K^30 (SEQ ID NO:107). […] Substitutions for EALK-PTHrP(1-34) A^30 to A^33 (SEQ ID NO:113-116) and EALK-PTHrP(1-28)/PTH(29-34) (SEQ ID NO:117).
To optimize the activity of the EALK-PTHrP peptides, we generated EALK-PTHrP([…]) and PTHrP(1-34) variants with substitutions in the 29-33 region. In the 1-30 scaffold, Gly, Ser, Leu, Asn, Gln, Trp, Glu, and Lys were substituted at position 29; Gly, Ser, Leu, Asn, Asp, Trp, and Lys were substituted at position 30; and Ser, Leu, Asn, Val, Trp, Glu, and Lys were substituted at position 31. […] A predicted advantage of these longer-length peptides, relative to the PTHrP(1-30) scaffold, is that they will have longer a longer half-life in circulation due to slower clearance. The C-terminal substitutions were thus designed to provide the added chain length, but to avoid increasing R^0 binding affinity, which occurs when the native PTHrP(29-34) region (SEQ ID NO:186) is installed. These peptides were tested for cAMP activity in MC3T3-E1 cells.

SaOS cells = assay: cAMP production in SaOS cells, dose-response; format: cell-based; conditions: Table 3; read-out: dose-response cAMP in SaOS (EC50)
[3] = molecular target: T1, human PTHR, G protein-coupled conformation (RG) (Homo sapiens, UniProt Q03431); assay: Competition binding to RG conformation of hPTHR (COS-7 membranes, GαsND, 125I-[Aib1,3,M]PTH(1-15) tracer)
T1 construct: expressed in transfected cells; host or cells: COS-7, transient (Fugene-6); membranes
T1 sequence (Q03431 27-593): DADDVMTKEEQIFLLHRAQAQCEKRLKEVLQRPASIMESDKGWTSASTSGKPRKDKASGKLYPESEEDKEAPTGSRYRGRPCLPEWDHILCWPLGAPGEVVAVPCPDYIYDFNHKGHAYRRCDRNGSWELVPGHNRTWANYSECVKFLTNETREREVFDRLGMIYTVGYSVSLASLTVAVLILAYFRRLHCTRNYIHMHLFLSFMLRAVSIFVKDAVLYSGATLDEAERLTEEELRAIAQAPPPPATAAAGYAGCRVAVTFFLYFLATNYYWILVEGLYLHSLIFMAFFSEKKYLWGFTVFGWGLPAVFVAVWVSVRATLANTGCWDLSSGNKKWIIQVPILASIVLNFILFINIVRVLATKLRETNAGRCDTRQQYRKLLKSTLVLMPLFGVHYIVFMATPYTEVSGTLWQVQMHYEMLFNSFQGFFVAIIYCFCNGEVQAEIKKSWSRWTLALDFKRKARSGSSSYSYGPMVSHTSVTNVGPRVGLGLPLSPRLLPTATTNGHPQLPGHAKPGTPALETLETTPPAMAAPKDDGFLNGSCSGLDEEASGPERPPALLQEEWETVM

[4] = molecular target: T2, human PTHR, G protein-uncoupled conformation (R^0) (Homo sapiens, UniProt Q03431); assay: Competition binding to R0 conformation of hPTHR (COS-7 membranes, GTPγS, 125I-PTH(1-34) tracer); conditions: parent PTHrP(1-28)NH
T2 construct: expressed in transfected cells; host or cells: COS-7, transient (Fugene-6)
T2 sequence (Q03431 27-593): T1 sequence (Q03431 27-593)
Procedure, shortened: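 Bound versus free radioligand was separated by vacuum filtration after 90 min incubation of COS-7 hPTHR membranes (20-100 μg/mL) with tracer and competing peptides. Non-specific binding came from a saturating unlabeled analog.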

[5] = tested on: LLCPK1-B64 cells or SaOS-2 cells; assay: cAMP screen of substituted PTHrP(1-28) analogs (% parent); format: cell-based; conditions: parent PTHrP(1-28)NH
Procedure, shortened: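 LLCPK1-B64 or SaOS-2 cells exposed to peptide analogs at 3×10^−9M with IBMX for 30 minutes at room temperature, then cAMP measured. Each analog's response expressed as percentage of that for parent PTHrP(1-28).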

[6] = parent E18,A22,L25,K26-PTHrP(1-31)OH
[7] = parent E18,A22,L25,K26-PTHrP(1-34)OH

Compound | pEC50 (MC3T3-E1 cells [1]) | pEC50 (SaOS cells) | screen cAMP (% parent) (MC3T3-E1 cells [2]; [6]) | screen cAMP (% parent) [5] [% parent] | further results
AVSEHQLLHDKGKSIQDERRRAFLLKLIADI [E18, A22, L25, K26, D30-PTHrP(1-31)OH, E18,A22,L25,K26,D30-PTHrP(1-31)] | 9.49 |  | 251 |  | 
CC[C@H](C)[C@H](NC(=O)[C@H](CC(C)C)NC(=O)[C@H](CCCCN)NC(=O)[C@H](CC(C)C)NC(=O)[C@H](CC(C)C)NC(=O)[C@H](Cc1ccccc1)NC(=O)[C@H](CO)NC(=O)[C@H](CCCNC(=N)N)NC(=O)[C@H](CCCNC(=N)N)NC(=O)[C@H](CCCNC(=N)N)NC(=O)[C@H](CCC(=O)O)NC(=O)[C@H](CC(=O)O)NC(=O)[C@H](CCC(N)=O)NC(=O)[C@@H](NC(=O)[C@H](CO)NC(=O)[C@H](CCCCN)NC(=O)CNC(=O)[C@H](CCCCN)NC(=O)[C@H](CC(=O)O)NC(=O)[C@H](Cc1c[nH]cn1)NC(=O)[C@H](CC(C)C)NC(=O)[C@H](CC(C)C)NC(=O)[C@H](CCC(N)=O)NC(=O)[C@H](Cc1c[nH]cn1)NC(=O)[C@H](CCC(=O)O)NC(=O)[C@H](CO)NC(=O)[C@@H](NC(=O)[C@H](C)N)C(C)C)[C@@H](C)CC)C(N)=O [E18, S22, L25, K26-PTHrP(1-28)NH, E18,S22,L25,K26-PTHrP(1-28)] (H-AVSEHQLLHDKGKSIQDERRRSFLLKLI-NH2; N-terminus assumed) |  | 10.26 |  | 337 | 
AVSEHQLLHDKGKSIQDERRRAFLLKLIAEI [E18, A22, L25, K26-PTHrP(1-31)OH, E18,A22,L25,K26-PTHrP(1-31)] | 9.11 |  | 100 |  | 
AVSEHQLLHDKGKSIQDARRRAFLKKLI [A18, 22, K25, 26-PTHrP(1-28)NH, A18,22,K25,26-PTHrP(1-28)] |  | 10.92 |  | 349 | 
AVSEHQLLHDKGKSIQDERRRAFLLKLIQDVHNF [E18,A22,L25,K26,Q29,D30,V31,N33,F34-PTHrP(1-34)] | 9.25 |  |  |  | screen cAMP (% parent) (MC3T3-E1 cells [2]; [7]): 204 % parent
CC[C@H](C)[C@H](NC(=O)[C@H](CC(C)C)NC(=O)[C@H](CCCCN)NC(=O)[C@H](CC(C)C)NC(=O)[C@H](CC(C)C)NC(=O)[C@H](Cc1ccccc1)NC(=O)[C@H](CO)NC(=O)[C@H](CCCNC(=N)N)NC(=O)[C@H](CCCNC(=N)N)NC(=O)[C@H](CCCNC(=N)N)NC(=O)[C@H](C)NC(=O)[C@H](CC(=O)O)NC(=O)[C@H](CCC(N)=O)NC(=O)[C@@H](NC(=O)[C@H](CO)NC(=O)[C@H](CCCCN)NC(=O)CNC(=O)[C@H](CCCCN)NC(=O)[C@H](CC(=O)O)NC(=O)[C@H](Cc1c[nH]cn1)NC(=O)[C@H](CC(C)C)NC(=O)[C@H](CC(C)C)NC(=O)[C@H](CCC(N)=O)NC(=O)[C@H](Cc1c[nH]cn1)NC(=O)[C@H](CCC(=O)O)NC(=O)[C@H](CO)NC(=O)[C@@H](NC(=O)[C@H](C)N)C(C)C)[C@@H](C)CC)C(N)=O [A18, S22, L25, K26-PTHrP(1-28)NH, A18,S22,L25,K26-PTHrP(1-28)] (H-AVSEHQLLHDKGKSIQDARRRSFLLKLI-NH2; N-terminus assumed) |  | 11.05 |  | 367 | IC50 ([3]; Table 3, read-out: dose-response human PIR RG (IC50 nM)): 0.1 nM
AVSEHQLLHDKGKSIQDERRRAFLKKLI [E18, A22, K25, 26-PTHrP(1-28)NH, E18,A22,K25,26-PTHrP(1-28)] |  | 10.27 |  | 323 | 
AVSEHQLLHDKGKSIQDERRRAFLLKLIQEI [E18, A22, L25, K26, Q29-PTHrP(1-31)OH, E18,A22,L25,K26,Q29-PTHrP(1-31)] | 9.23 |  | 226 |  | 
AVSEHQLLHDKGKSIQDARRRSFLKKLI [A18, S22, K25, 26-PTHrP(1-28)NH, A18,S22,K25,26-PTHrP(1-28)] |  | 10.82 |  | 316 | 
AVSEHQLLHDKGKSIQDERRRAFLLKLIAEAHTA [E18, A22, L25, K26, A31-PTHrP(1-34)OH, E18,A22,L25,K26,A31-PTHrP(1-34)] | 9.82 |  |  |  | screen cAMP (% parent) (MC3T3-E1 cells [2]; [7]): 249 % parent
AVSEHQLLHDKGKSIQDERRRAFLLKLISEI [E18, A22, L25, K26, S29-PTHrP(1-31)OH, E18,A22,L25,K26,S29-PTHrP(1-31)] | 9.39 |  | 209 |  | 
E18,A22,L25,K26,S31-PTHrP(1-31) (AVSEHQLLHDKGKSIQDERRRAFLLKLIAES-OH) [E18, A22, L25, K26, S31-PTHrP(1-31)OH] |  |  | 99 |  | 

Now from value to compound, other results behind:

pEC50 (MC3T3-E1 cells [1]) | pEC50 (SaOS cells) | Compound | screen cAMP (% parent) (MC3T3-E1 cells [2]; [6]) | screen cAMP (% parent) [5] [% parent] | further results
9.60 |  | AVSEHQLLHDKGKSIQDERRRAFLLKLIAEL [E18, A22, L25, K26, L31-PTHrP(1-31)OH, E18,A22,L25,K26,L31-PTHrP(1-31)] | 198 |  | 
9.55 |  | AVSEHQLLHDKGKSIQDERRRAFLLKLIKEI [E18, A22, L25, K26, K29-PTHrP(1-31)OH, E18,A22,L25,K26,K29-PTHrP(1-31)] | 227 |  | 
 | 10.42 | AVSEHQLLHDKGKSIQDARRRSFLHKLI [A18, S22, K26-PTHrP(1-28)NH, A18,S22,K26-PTHrP(1-28)] |  | 372 | screen human PIR RG (% parent) ([3]; parent PTHrP(1-28)NH): 175 % parent; screen human PIR R0 (% parent) [4]: 155 % parent
9.70 |  | AVSEHQLLHDKGKSIQDERRRAFLLKLIAKI [E18, A22, L25, K26, K30-PTHrP(1-31)OH, E18,A22,L25,K26,K30-PTHrP(1-31)] | 245 |  | 
9.92 |  | AVSEHQLLHDKGKSIQDERRRAFLLKLIASI [E18, A22, L25, K26, S30-PTHrP(1-31)OH, E18,A22,L25,K26,S30-PTHrP(1-31)] | 331 |  | 
9.35 |  | AVSEHQLLHDKGKSIQDERRRAFLLKLIAEIHTA [E18, A22, L25, K26-PTHrP(1-34)OH, E18,A22,L25,K26-PTHrP(1-34)] |  |  | screen cAMP (% parent) (MC3T3-E1 cells [2]; [7]): 100 % parent
9.85 |  | AVSEHQLLHDKGKSIQDERRRAFLLKLIAAIHTA [E18, A22, L25, K26, A30-PTHrP(1-34)OH, E18,A22,L25,K26,A30-PTHrP(1-34)] |  |  | screen cAMP (% parent) (MC3T3-E1 cells [2]; [7]): 237 % parent
